Data as given in US20210395313A1, “PEPTIDE PAC1 ANTAGONISTS” (AMGEN INC., priority 2017, published 2021).
Where a SMILES comes first, the peptide text is derived from it. Bridges are numbered along the chain shown (N, C = ends). Where no end group is shown, it is not given here.

Key:
human PAC1 receptor = target: T1, human PAC1 receptor (Homo sapiens, UniProt P41586); experiment: LANCE Ultra cAMP accumulation antagonist assay in SHSY-5Y cells; format: cell-based;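 further: inhibition of cAMP accumulation evoked by PAC1 agonist at its EC80 in SHSY-5Y cells endogenously expressing receptor, 30 min preincubation then 15 min agonist, TR-FRET readout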
T1 construct: SHSY-5Y (human neuroblastoma cell line) and RG-2 (rat glioma cell line) cells endogenously express human and rat PAC1 receptors, respectively; endogenous in cells; host or cells: SHSY-5Y human neuroblastoma cells
T1 sequence (P41586 21-468): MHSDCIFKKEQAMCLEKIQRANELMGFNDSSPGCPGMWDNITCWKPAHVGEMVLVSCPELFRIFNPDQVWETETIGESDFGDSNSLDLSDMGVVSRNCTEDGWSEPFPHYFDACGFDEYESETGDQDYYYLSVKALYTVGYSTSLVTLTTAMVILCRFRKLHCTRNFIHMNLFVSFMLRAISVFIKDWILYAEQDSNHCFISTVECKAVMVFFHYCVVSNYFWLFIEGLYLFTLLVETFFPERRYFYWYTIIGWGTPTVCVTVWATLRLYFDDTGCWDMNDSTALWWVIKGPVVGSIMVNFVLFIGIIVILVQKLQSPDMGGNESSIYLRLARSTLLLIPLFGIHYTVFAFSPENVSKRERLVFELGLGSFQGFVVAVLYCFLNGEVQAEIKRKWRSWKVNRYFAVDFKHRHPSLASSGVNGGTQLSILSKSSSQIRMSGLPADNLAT
Procedure: (§1) In order to determine the potency of peptide antagonists at the PAC1 receptor, functional cAMP accumulation assays using LANCE Ultra cAMP assay kit to measure the agonist and antagonist activity of PAC1 peptides were used. SHSY-5Y (human neuroblastoma cell line) and RG-2 (rat glioma cell line) cells endogenously express human and rat PAC1 receptors, respectively. Agonist activity of PAC1 peptides was tested by incubating with SHSY-5Y at 2,000 cells per well or RG-2 at 5,000 cells per well for 15 minutes at room temperature. PAC1 receptor agonist PACAP38 or maxadilan was included as a positive control. The reaction was stopped by adding detection mixture, europium (Eu) chelate-labeled cAMP tracer and cAMP-specific monoclonal antibodies labeled with the ULight™ dye, to all wells followed by a 60-minute incubation at room temperature. The assay plates were then read on an EnVision instrument at an emission wavelength of 665 and 615 nm and data were analyzed using Genedata Screener or GraphPad Prism software. A similar procedure was used in the antagonist assays by using a fixed concentration of PAC1 agonist. The concentrations of agonists were chosen based on their ECK) values at PAC1 receptors in SHSY-5Y or RG-2 cells. SHSY-5Y or RG-2 cells were added into 96-well half-area white plates. Serially diluted PAC1 peptides at ten concentrations were added and incubated for 30 minutes at room temperature. PAC1 agonist at EC80 concentration was then added and further incubated for 15 minutes at room temperature. The reaction was stopped by adding detection mixture to all wells followed by a 60-minute incubation at room temperature. The assay plates were read and analyzed the same way as that of agonist assay. Cells, agonists, and PAC1 peptides were prepared in freshly made assay buffer (F-12, 0.5 mM IBMX, 0.1 or 0.4% BSA (pH 7.4)). Detection mixture was made by mixing a 1/50 dilution of the Eu-cAMP tracer stock solution in cAMP Detection Buffer and a 1/150 dilution of the ULight-anti-cAMP stock solution in cAMP Detection Buffer. Europium (Eu) chelate-labeled cAMP tracer, cAMP-specific monoclonal antibodies labeled with the ULight™ dye, BSA, and detection buffer were provided in LANCE Ultra cAMP Kit from PerkinElmer

rat PAC1 receptor = target: T2, rat PAC1 receptor (Rattus norvegicus, UniProt P32215); experiment: LANCE Ultra cAMP accumulation antagonist assay in RG-2 cells; format: cell-based;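 further: RG-2 rat glioma cells endogenously expressing PAC1, test peptide preincubated 30 min, then PAC1 agonist added at its EC80 for 15 min, cAMP accumulation read by LANCE Ultra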
T2 construct: SHSY-5Y (human neuroblastoma cell line) and RG-2 (rat glioma cell line) cells endogenously express human and rat PAC1 receptors, respectively; endogenous in cells; host or cells: RG-2 rat glioma cells
T2 sequence (P32215 20-523): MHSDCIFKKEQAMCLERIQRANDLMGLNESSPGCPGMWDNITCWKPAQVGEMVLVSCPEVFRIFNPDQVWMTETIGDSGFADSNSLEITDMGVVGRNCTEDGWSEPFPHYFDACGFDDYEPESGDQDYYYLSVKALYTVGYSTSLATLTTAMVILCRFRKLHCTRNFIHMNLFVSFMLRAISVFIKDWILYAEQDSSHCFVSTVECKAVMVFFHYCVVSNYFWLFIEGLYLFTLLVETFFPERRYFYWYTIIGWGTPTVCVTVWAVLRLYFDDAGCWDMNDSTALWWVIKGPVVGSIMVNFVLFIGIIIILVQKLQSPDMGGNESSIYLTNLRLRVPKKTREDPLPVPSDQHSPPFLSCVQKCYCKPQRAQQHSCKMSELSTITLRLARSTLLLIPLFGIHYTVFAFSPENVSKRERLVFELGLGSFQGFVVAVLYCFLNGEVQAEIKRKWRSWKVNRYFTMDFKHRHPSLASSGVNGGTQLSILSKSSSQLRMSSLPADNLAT
Procedure: as §1

Molecule	IC50 (human PAC1 receptor) [nM]	IC50 (rat PAC1 receptor) [nM]
GCDATCQFRKAIDDCAKQAHHSNVPGSVFKACMKQKKKEFKAGY (disulfide 2-6, 15-32) [SEQ ID NO 58]	0.01 to 1	0.01 to 1
CDATCQFRKAIDDCWKQAHHSNVPGSVFKACMKQKKKEFKAG-NH2 (disulfide 1-5, 14-31) [compound 80]	0.01 to 1	< 0.01
CDATCQFRKAIDDCWIVAWHANVPGSVFKACMKQKKKEFKAG-NH2 (disulfide 1-5, 14-31) [compound 129]	0.01 to 1	0.01 to 1
CDATCQFRKAIDDCDRQAHHSNVPGSVFKACMKQKKKEWKAN-NH2 (disulfide 1-5, 14-31) [compound 158]	0.01 to 1	0.01 to 1
CDATCQFRKAIDDCARQAHHSNVPGSVFKACMKQKKKEFKAG-NH2 (disulfide 1-5, 14-31) [compound 17]	0.01 to 1	< 0.01
CDATCQYRKGLVACLYKKVAMQKRYSVFKACMKQKKKEFKAG-NH2 (disulfide 1-5, 14-31) [compound 46]	1 to 100	0.01 to 1
CDATCQFRKAIDDCARQAHHSNVPGSVFKACMKQKKKEWKAGH-NH2 (disulfide 1-5, 14-31) [compound 2]	0.01 to 1	0.01 to 1
CDATCQFRKAIDDCARQAHHANVPGSVFKACMKQKKKEWKAGH (disulfide 1-5, 14-31) [compound 8]	0.01 to 1	0.01 to 1
CDATCQFRKAIDDCFYQAWHSNVPGSVWKACMKFRFNVWKAG-NH2 (disulfide 1-5, 14-31) [compound 55]	1 to 100	0.01 to 1
CDATCQFRKAIDDCDRQAHHSNVPGSVFKACMKQKKKEWKAGH (disulfide 1-5, 14-31) [compound 167]	0.01 to 1	0.01 to 1
CC[C@H](C)[C@H](NC(=O)[C@H](C)NC(=O)[C@H](CCCCN)NC(=O)[C@H](CCCNC(=N)N)NC(=O)[C@H](Cc1ccccc1)NC(=O)[C@H](CCC(N)=O)NC(=O)[C@@H]1CSSC[C@H](NC(C)=O)C(=O)N[C@@H](CC(=O)O)C(=O)N[C@@H](C)C(=O)N[C@@H]([C@@H](C)O)C(=O)N1)C(=O)N[C@@H](CC(=O)O)C(=O)N[C@@H](CC(=O)O)C(=O)N[C@H]1CSSC[C@@H](C(=O)N[C@@H](CCSC)C(=O)N[C@@H](CCCCN)C(=O)N[C@@H](CCC(N)=O)C(=O)N[C@@H](CCCCN)C(=O)N[C@@H](CCCCN)C(=O)N[C@@H](CCCCN)C(=O)N[C@@H](CCC(=O)O)C(=O)N[C@@H](Cc2ccccc2)C(=O)N[C@@H](CCCCN)C(=O)N[C@@H](C)C(N)=O)NC(=O)C(C)(C)NC(=O)[C@H](CCCCN)NC(=O)[C@H](Cc2ccccc2)NC(=O)[C@H](C(C)C)NC(=O)[C@H](CO)NC(=O)CNC(=O)[C@@H]2CCCN2C(=O)[C@H](C(C)C)NC(=O)[C@H](CC(N)=O)NC(=O)[C@H](CO)NC(=O)[C@H](Cc2c[nH]cn2)NC(=O)[C@H](Cc2c[nH]cn2)NC(=O)[C@H](C)NC(=O)[C@H](CCC(N)=O)NC(=O)[C@H](CCCCN)NC(=O)[C@H](CCC(N)=O)NC1=O [SEQ ID NO 249]	1 to 100	0.01 to 1
CDATCQFRKAIDDCSWFAIHSNVPGSVFKACMKQKKKEFKAG-NH2 (disulfide 1-5, 14-31) [compound 115]	0.01 to 1	0.01 to 1
CDATCQFRKAIDDCQKQAHHSNVPGSVFKACMKFRRTLWKAG-NH2 (disulfide 1-5, 14-31) [compound 89]	1 to 100	0.01 to 1
CDATCQFRKAIDDCYWIAMHSNVPGSVWKACMKQKKKEFKAG-NH2 (disulfide 1-5, 14-31) [compound 147]	0.01 to 1	0.01 to 1
CDATCQFRKAIDDCDRQAHHSNVPGSVFKACMKQKKKEFKAGH (disulfide 1-5, 14-31) [compound 155]	1 to 100	0.01 to 1
CDATCQFRKAIDDCARQAHHSNVPGSVFKACLKQKKKEWKAGH (disulfide 1-5, 14-31) [compound 41]	0.01 to 1	0.01 to 1
CDATCQFRKAIDDCWIVAWHSNVPGSVFKACMKQKKKEFKAG-NH2 (disulfide 1-5, 14-31) [compound 73]	0.01 to 1	0.01 to 1
CDATCQFRKAIDDCAKQAHHSNVPGSVFKACMKQKKKEFKAGH (disulfide 1-5, 14-31) [compound 57]	0.01 to 1	0.01 to 1
CC[C@H](C)[C@H](NC(=O)[C@H](C)NC(=O)[C@H](CCCCN)NC(=O)[C@H](CCCNC(=N)N)NC(=O)[C@H](Cc1ccccc1)NC(=O)[C@H](CCC(N)=O)NC(=O)[C@@H]1CSSC[C@H](N)C(=O)N[C@@H](CC(=O)O)C(=O)N[C@@H](C)C(=O)N[C@@H]([C@@H](C)O)C(=O)N1)C(=O)N[C@@H](CC(=O)O)C(=O)N[C@@H](CC(=O)O)C(=O)N[C@H]1CSSC[C@@H](C(=O)N[C@@H](CCSC)C(=O)N[C@@H](CCCCN)C(=O)N[C@@H](CCC(N)=O)C(=O)N[C@@H](CCCCN)C(=O)N[C@@H](CCCCN)C(=O)N[C@@H](CCCCN)C(=O)N[C@@H](CCC(=O)O)C(=O)N[C@@H](Cc2ccccc2)C(=O)N[C@@H](CCCCN)C(N)=O)NC(=O)[C@H](CCC(=O)O)NC(=O)[C@H](CCCCN)NC(=O)[C@H](Cc2ccccc2)NC(=O)[C@H](C(C)C)NC(=O)[C@H](CO)NC(=O)CNC(=O)[C@@H]2CCCN2C(=O)[C@H](C(C)C)NC(=O)[C@H](CC(N)=O)NC(=O)[C@H](CO)NC(=O)[C@H](Cc2c[nH]cn2)NC(=O)[C@H](Cc2c[nH]cn2)NC(=O)[C@H](C)NC(=O)[C@H](CCC(N)=O)NC(=O)[C@H](CCCCN)NC(=O)[C@H](CCC(N)=O)NC1=O [compound 293]	1 to 100	0.01 to 1
CDATCQFRKAIDDCARQAHHSNVPGSVFKACIKQKKKEWKAGH (disulfide 1-5, 14-31) [compound 9]	0.01 to 1	0.01 to 1
CDATCQFRKAIDDCAHRAWHSNVPGSVFKLCMKQKKKEWKAGH-NH2 (disulfide 1-5, 14-31) [compound 424]	0.01 to 1	0.01 to 1
CDATCQFRKAIDDCQRQAHHSNVPGNSVFKECMKQKKKEFK-NH2 (disulfide 1-5, 14-32) [compound 288]	1 to 100	1 to 100
CDATCQFRKAIDDCAKQAHHSNVPGSVFKACMKQKKKEFKAGY (disulfide 1-5, 14-31) [SEQ ID NO 56]	0.01 to 1	0.01 to 1
CDATCQFRKAIDDCDRQAYHSNVPGSVFKACMKQKKKEWKAG-NH2 (disulfide 1-5, 14-31) [compound 144]	0.01 to 1	0.01 to 1
CDATCQFRKAIDDCYYRSHHSNVPGSVFKACMKQKKKEFKAG-NH2 (disulfide 1-5, 14-31) [compound 45]	0.01 to 1	0.01 to 1
CC[C@H](C)[C@H](NC(=O)[C@H](C)NC(=O)[C@H](CCCCN)NC(=O)[C@H](CCCNC(=N)N)NC(=O)[C@H](Cc1ccccc1)NC(=O)[C@H](CCC(N)=O)NC(=O)[C@@H]1CSSC[C@H](N)C(=O)N[C@@H](CC(=O)O)C(=O)N[C@@H](C)C(=O)N[C@@H]([C@@H](C)O)C(=O)N1)C(=O)N[C@@H](CC(=O)O)C(=O)N[C@@H](CC(=O)O)C(=O)N[C@H]1CSSC[C@@H](C(=O)N[C@@H](CCSC)C(=O)N[C@@H](CCCCN)C(=O)N[C@@H](CCC(N)=O)C(=O)N[C@@H](CCCCN)C(=O)N[C@@H](CCCCN)C(=O)N[C@@H](CCCCN)C(=O)N[C@@H](CCC(=O)O)C(=O)N[C@@H](Cc2ccccc2)C(=O)N[C@@H](CCCCN)C(N)=O)NC(=O)[C@H](CCC(=O)O)NC(=O)[C@H](CCCCN)NC(=O)[C@H](Cc2ccccc2)NC(=O)[C@H](C(C)C)NC(=O)[C@H](CO)NC(=O)[C@H](CO)NC(=O)[C@H](Cc2c[nH]cn2)NC(=O)[C@H](Cc2c[nH]cn2)NC(=O)[C@H](C)NC(=O)[C@H](CCC(N)=O)NC(=O)[C@H](CCCCN)NC(=O)[C@H](CCC(N)=O)NC1=O [compound 225] (H-CDATCQFRKAIDDCQKQAHHSSVFKECMKQKKKEFK-NH2; disulfide 1-5, 14-27)	0.01 to 1	1 to 100
CDATCQFRKAIDDCVWFAWHSNVPGSVFKACMKQKKKEFKAG-NH2 (disulfide 1-5, 14-31) [compound 148]	0.01 to 1	0.01 to 1
CDATCFFRKVIDDCYYRSWHSNVPGSVFKACMKQLKKRWQAG-NH2 (disulfide 1-5, 14-31) [compound 70]	1 to 100	1 to 100
CDATCQFRKAIDDCQKQAHHSNVPGSVFKACMVQKKKEFKAG-NH2 (disulfide 1-5, 14-31) [compound 102]	1 to 100	0.01 to 1
CDATCQFRKAIDDCQKQAHHSNVPGSVFKLCMKQKKKEFKAG-NH2 (disulfide 1-5, 14-31) [compound 226]	0.01 to 1	0.01 to 1
